Results taken from ChEMBL document CHEMBL1201862, “PubChem BioAssay data set” (2004).
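Interpolation was linear, between the two tested concentrations surrounding the appropriate level; five concentrations were tested over 48 hours in 96-well plates. Abbreviation: GI50, concentration required for 50% inhibition of growth.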 Calls of active or inactive are those of the source. No stated cut-off is given here; in the data, active = GI50 up to about 1.1 µM and inactive = higher.

Legend:
Assay in all cases: NCI-60 cell line screen, 48 h
786-0 = tested on: 786-0
ACHN = tested on: ACHN
CCRF-CEM = tested on: CCRF-CEM
HCT-15 = tested on: HCT-15
HT-29 = tested on: HT-29
Hs-578T = tested on: Hs-578T
IGROV-1 = tested on: IGROV-1
KM12 = tested on: KM12
MDA-MB-231 = tested on: MDA-MB-231
NCI-H460 = tested on: NCI-H460
NCI-H522 = tested on: NCI-H522
OVCAR-3 = tested on: OVCAR-3
OVCAR-4 = tested on: OVCAR-4
RPMI-8226 = tested on: RPMI-8226
SF-268 = tested on: SF-268
SF-539 = tested on: SF-539
SK-OV-3 = tested on: SK-OV-3
SNB-19 = tested on: SNB-19
UO-31 = tested on: UO-31
RXF 393 = tested on: RXF 393

Row | SMILES | GI50 (786-0) | GI50 (ACHN) | GI50 (CCRF-CEM) | GI50 (HCT-15) | GI50 (HT-29) | GI50 (Hs-578T) | GI50 (IGROV-1) | GI50 (KM12) | GI50 (MDA-MB-231) | GI50 (NCI-H460) | GI50 (NCI-H522) | GI50 (OVCAR-3) | GI50 (OVCAR-4) | GI50 (RPMI-8226) | GI50 (SF-268) | GI50 (SF-539) | GI50 (SK-OV-3) | GI50 (SNB-19) | GI50 (UO-31) | GI50 (RXF 393)
1 | O=C1c2ccccc2-c2nc(-c3cccs3)cc3c2c1nc1ccccc13 | 35.8 µM (inactive) | 34.4 µM (inactive) | 22.3 µM (inactive) | 15.2 µM | 21.5 µM (inactive) | 21.3 µM (inactive) | 12.4 µM (inactive) | 11.4 µM (inactive) | 58.3 µM (inactive) | 4.69 µM (inactive) | 12.7 µM (inactive) | 2.3 µM (inactive) | 56 µM (inactive) | 23.2 µM (inactive) | 12.5 µM (inactive) | 24.5 µM (inactive) | > 100 µM (inactive) | 35.9 µM (inactive) | 22.7 µM (inactive) | –
2 | OC(c1cc2ccc(C(F)(F)F)cc2c2cc(C(F)(F)F)ccc12)C1CCCCN1 (configuration not stated) | 1.58 µM (inactive) | 1.33 µM (inactive) | 1.78 µM (inactive) | 1.79 µM | 2.07 µM (inactive) | 1.9 µM (inactive) | 1.74 µM (inactive) | 2.07 µM (inactive) | 1.73 µM (inactive) | 1.95 µM (inactive) | 1.7 µM (inactive) | 1.63 µM (inactive) | 1.77 µM (inactive) | 2.17 µM (inactive) | 1.64 µM (inactive) | 1.69 µM (inactive) | 2.36 µM (inactive) | 1.84 µM (inactive) | 1.41 µM (inactive) | –
3 | CCN1CC2(COC)C(O)CC(OC)C34C5CC6(O)C(OC)C=C(C5C6OC(=O)c5ccc(OC)c(OC)c5)C(C(OC)C23)C14 (configuration not stated) | > 7.5 µM (inactive) | > 7.5 µM (inactive) | > 7.5 µM (inactive) | > 7.5 µM | > 7.5 µM (inactive) | > 7.5 µM (inactive) | > 7.5 µM (inactive) | > 7.5 µM (inactive) | > 7.5 µM (inactive) | > 7.5 µM (inactive) | > 7.5 µM (inactive) | – | > 7.5 µM (inactive) | – | > 7.5 µM (inactive) | > 7.5 µM (inactive) | > 7.5 µM (inactive) | > 7.5 µM (inactive) | > 7.5 µM (inactive) | –
4 | O=CNNC(=O)Nc1cccc2ccccc12 | > 100 µM (inactive) | > 100 µM (inactive) | > 100 µM (inactive) | > 100 µM | > 100 µM (inactive) | > 100 µM (inactive) | > 100 µM (inactive) | > 100 µM (inactive) | > 100 µM (inactive) | > 100 µM (inactive) | – | – | > 100 µM (inactive) | > 100 µM (inactive) | > 100 µM (inactive) | > 100 µM (inactive) | > 100 µM (inactive) | > 100 µM (inactive) | > 100 µM (inactive) | > 100 µM (inactive)
5 | Clc1cc(Cl)c2cc3cccc[n+]3cc2c1Cl | 18.7 µM (inactive) | 16.3 µM (inactive) | 12.1 µM (inactive) | 18.3 µM | 15.5 µM (inactive) | 18.1 µM (inactive) | – | > 10 µM (inactive) | 17.9 µM (inactive) | 16.3 µM (inactive) | – | 12.1 µM (inactive) | 15.5 µM (inactive) | 16.4 µM (inactive) | 12.8 µM (inactive) | 18.3 µM (inactive) | 16.6 µM (inactive) | 14.9 µM (inactive) | 15.1 µM (inactive) | –
6 | COc1c(N2CCCCC2)c2c(=O)c3ccccc3oc2c2c3ccccc3n(C)c12 | > 100 µM (inactive) | > 100 µM (inactive) | 64.3 µM (inactive) | > 100 µM | 42.4 µM (inactive) | > 100 µM (inactive) | – | > 100 µM (inactive) | > 100 µM (inactive) | > 100 µM (inactive) | – | > 100 µM (inactive) | > 100 µM (inactive) | 47.1 µM (inactive) | > 100 µM (inactive) | > 100 µM (inactive) | > 100 µM (inactive) | > 100 µM (inactive) | > 100 µM (inactive) | 94.6 µM (inactive)
7 | C[C@]12C(=O)OC[C@H](c3ccccc3)N1C(=O)N(Cc1ccccc1)[C@@H]2CO | > 100 µM (inactive) | > 100 µM (inactive) | > 100 µM (inactive) | > 100 µM | > 100 µM (inactive) | > 100 µM (inactive) | > 100 µM (inactive) | > 100 µM (inactive) | > 100 µM (inactive) | > 100 µM (inactive) | – | > 100 µM (inactive) | > 100 µM (inactive) | – | > 100 µM (inactive) | > 100 µM (inactive) | > 100 µM (inactive) | > 100 µM (inactive) | > 100 µM (inactive) | > 100 µM (inactive)
8 | CCC1c2[nH]c3ccccc3c2C[C@H]2C(=O)NC(Cc3ccccc3)C(=O)N12 (some centres not stated) | 36 µM (inactive) | 30.5 µM (inactive) | – | 35 µM | 23.5 µM (inactive) | 12.4 µM (inactive) | 28.8 µM (inactive) | 24.8 µM (inactive) | 21 µM (inactive) | – | 22.9 µM (inactive) | 31 µM (inactive) | 33.6 µM (inactive) | 20.2 µM (inactive) | 27.2 µM (inactive) | – | 44.7 µM (inactive) | 34.9 µM (inactive) | 30.8 µM (inactive) | 22.1 µM (inactive)
9 | CC[C@@]1(C)CCC2c3ccc(O)cc3CC[C@H]2C1C (some centres not stated) | 16.2 µM (inactive) | 18.2 µM (inactive) | 16.5 µM (inactive) | 16 µM | 18 µM (inactive) | 18.8 µM (inactive) | 20.8 µM (inactive) | 15.8 µM (inactive) | – | 22.7 µM (inactive) | 19.3 µM (inactive) | 20.6 µM (inactive) | 19.4 µM (inactive) | 19.4 µM (inactive) | 15.5 µM (inactive) | 19.9 µM (inactive) | – | 17.5 µM (inactive) | 16.7 µM (inactive) | 13 µM (inactive)
10 | Nc1ncnc2ccc(Sc3ccc4ncnc(N)c4c3)cc12 | > 100 µM (inactive) | > 100 µM (inactive) | > 100 µM (inactive) | > 100 µM | > 100 µM (inactive) | > 100 µM (inactive) | > 100 µM (inactive) | > 100 µM (inactive) | > 100 µM (inactive) | > 100 µM (inactive) | – | > 100 µM (inactive) | > 100 µM (inactive) | > 100 µM (inactive) | > 100 µM (inactive) | > 100 µM (inactive) | > 100 µM (inactive) | > 100 µM (inactive) | > 100 µM (inactive) | > 100 µM (inactive)
11 | N/C1=C/C(=O)NC(=O)c2c(c3ccccc3oc2=O)C1 | > 100 µM (inactive) | > 100 µM (inactive) | > 100 µM (inactive) | > 100 µM | > 100 µM (inactive) | > 100 µM (inactive) | > 100 µM (inactive) | > 100 µM (inactive) | > 100 µM (inactive) | > 100 µM (inactive) | > 100 µM (inactive) | > 100 µM (inactive) | > 100 µM (inactive) | 62.8 µM (inactive) | > 100 µM (inactive) | – | – | > 100 µM (inactive) | > 100 µM (inactive) | > 100 µM (inactive)
12 | NC(=O)CN1CC(C2=C(O)CN(CC(N)=O)C2=O)=CC1=O | > 100 µM (inactive) | > 100 µM (inactive) | > 100 µM (inactive) | > 100 µM | > 100 µM (inactive) | > 100 µM (inactive) | > 100 µM (inactive) | > 100 µM (inactive) | > 100 µM (inactive) | > 100 µM (inactive) | > 100 µM (inactive) | > 100 µM (inactive) | > 100 µM (inactive) | > 100 µM (inactive) | > 100 µM (inactive) | > 100 µM (inactive) | > 100 µM (inactive) | > 100 µM (inactive) | 85.7 µM (inactive) | –
13 | CC(=O)Nc1ccc2c(c1)[nH]c(=O)c1cc(Cl)ccc12 | 65.6 µM (inactive) | 23.9 µM (inactive) | 0.341 µM (active) | 33.1 µM | 15.4 µM (inactive) | 94 µM (inactive) | 6.75 µM (inactive) | 26.5 µM (inactive) | 44.8 µM (inactive) | 10.4 µM (inactive) | 27.1 µM (inactive) | – | 34.1 µM (inactive) | – | 26.9 µM (inactive) | 40.1 µM (inactive) | 34.8 µM (inactive) | 65.9 µM (inactive) | 18.2 µM (inactive) | –
14 | CCC1(O)C(=O)OCc2c1cc1n(c2=O)Cc2cc3cc(N)ccc3nc2-1 (configuration not stated) | < 0.01 µM (active) | < 0.01 µM (active) | < 0.01 µM (active) | 0.0721 µM | 0.0311 µM (active) | 1.42 µM (inactive) | 0.109 µM (active) | 0.0593 µM (active) | 0.516 µM (active) | < 0.01 µM (active) | < 0.01 µM (active) | 0.0466 µM (active) | 0.257 µM (active) | 0.0341 µM (active) | < 0.01 µM (active) | < 0.01 µM (active) | < 0.01 µM (active) | < 0.01 µM (active) | < 0.01 µM (active) | –
15 | O=C(OCCN=C1c2ccccc2CCc2ccccc21)c1cc([N+](=O)[O-])cc([N+](=O)[O-])c1 | > 31.6 µM (inactive) | > 31.6 µM (inactive) | 74.6 µM (inactive) | > 31.6 µM | > 31.6 µM (inactive) | > 31.6 µM (inactive) | 28.2 µM (inactive) | 28.1 µM (inactive) | > 31.6 µM (inactive) | > 31.6 µM (inactive) | – | 23.3 µM (inactive) | 78.2 µM (inactive) | 5.09 µM (inactive) | > 31.6 µM (inactive) | > 31.6 µM (inactive) | > 100 µM (inactive) | > 31.6 µM (inactive) | 21.9 µM (inactive) | > 31.6 µM (inactive)
